Laboratory results from US9132164B2, “Pharmaceutical compositions comprising angiotensin-(1-9), derivatives thereof, or a vector expressing ACE2, useful for treating cardiovascular, pulmonary, cerebral, and/or renal remodeling” (PONTIFICIA UNIVERSIDAD CATOLICA DE CHILE, priority 2008, dated 2015).
Marks after values point to notes of the source that are not given here.

How the values were obtained:
Assay type in all cases: in vivo, Sprague Dawley rats
[1] = test system: sham and infarcted rats (left coronary artery ligation); assay: Effect of candesartan and enalapril on blood pressure, morphometry and function of the left ventricle after coronary artery ligation; details: for Infarct size LV / LVAWT / LVEDD / LVESD / LVFS / SBP / LLVWT / LVP content / LVW/BW / mRNA ANF / β-MHC: 10 mg/kg daily by gavage, 8 weeks, average ± SEM
Protocol: (§1) Male Sprague Dawley rats were kept in cages with access to water and food ad libitum. This procedure was performed in accordance with the Guide for the Care and Use of Laboratory Animals, published by “U.S. National Institutes of Health” (NIH publication No 85-23, revised 1985) and was approved by our Institutional Ethics Committee. For studies with enalapril and candesartan, 71 adult normotensive rats were randomly separated into two groups and underwent a sham surgery (surgery without ligation of the coronary artery, n=34) or myocardial infarction following a surgery with ligation of the left coronary artery (infarction, n=37) as previously described (Ocaranza et al, Hypertension 48:572-8, 2006). Briefly, the left coronary artery was ligated between the pulmonary artery exit and left auricle with a 7-0 silk suture under aseptic conditions in rats anaesthetized with ketamine-HCl/xilazine (35/7 mg/kg intraperitoneal, respectively). Sham rats underwent the same surgical procedure except that the suture was not passed around the left coronary artery. Myocardial infarction was confirmed by electrocardiography 24 h following surgery. Mortality rate from myocardial infarction following ligation of the left coronary artery was 25% within 48 h after occlusion. Infarct size in survivors was determined by planimetry of endocardial circumference of left ventricle on histological sections. Sham and infracted rats were randomized to receive the carrier, candesartan (10 mg/kg of body weight daily) or enalapril (10 mg/kg of body weight daily) by gavage for 8 weeks, beginning 48 h after infarction.
Systolic blood pressure (SBP) was determined by using the “tail-cuff” method by investigators who were blind to the treatment group. Left ventricle function was determined by transthoracic bidimensional echocardiography using a Sonos 5000 equipped with a 5 to 12 MHz sectorial electronic ultraband S12 Philips transducer. The following echocardiographic parameters were determined: left ventricular end-systolic diameter (LVESD), left ventricular end diastolic diameter (LVEDD), left ventricular fractional shortening (LVFS), left ventricular anterior wall thickness (LVAWT), and left ventricular posterior wall thickness (LLVWT).
The extent of left ventricular hypertrophy was calculated by the relationship among left ventricular weight (LVW), body weight (BW), mRNA relative levels of the auricular natriuretic factor (ANF), left ventricular protein content (LVP), and protein levels of β-myosinheavy chain (β-MHC) as described in (Ocaranza et al, Hypertension 48:572-8, 2006).
Left ventricular hypertrophy (LVH) was assessed by ecocardiography, relative left ventricle weight (RLVW, mg left ventricle weight (LVW)/body weight (BW)), relative levels of auricular natriuretic factor (ANF) mRNA, left ventricle protein (LVP) content, and β-myosin heavy chain (β-MHC) content are described in example 1.

[2] = Circulating angiotensin levels post coronary artery ligation (HPLC and radioimmunoassay); details: for Ang I / Ang II / Ang II/Ang I / Ang-(1 -7) / Ang-(1-7)/Ang II / Ang-(1 -9) / Ang-(1-9)/Ang I: plasma, 10 mg/kg daily, 8 weeks, average ± SEM
Protocol: as §1
(§2) Plasma angiotensin and bradykinin levels were determined as described by (Ocaranza et al, Hypertension 48:572-8, 2006; Ocaranza et al, Life Sci. 78:1535-42, 2005; Campbell et al, J. Mol. Cell. Cardiol. 27:1545-60, 1995). Briefly, rats were anesthetized with a combination of ketamin (125 mg/kg) and xilazin (12.5 mg/kg) administered via intraperitoneal injection. […] Plasmas were stored at −80° C. until their extraction using C18 Sep-Pak cartridges, and peptides were acetylated. Acetylated angiotensin II, angiotensin I, angiotensin-(1-7), angiotensin-(1-9), bradykinin-(1-7) and bradykinin-(1-9) were separated by high performance liquid chromatography (HPLC) and were detected by radioimmunoassay.
(§3) Plasma angiotensin and bradykinin (BK) levels were determined by high performance liquid chromatography and radioimmunoassay as described in example No 2. Angiotensin-I levels are lower in the infarcted rats group, associated with higher levels of angiotensin-II. However, plasma angiotensin-(1-7) and angiotensin-(1,9) levels were similar in sham rats and infarcted rats. Enalapril and candesartan increase both angiotensin-(1-9) circulating levels, and -(1-7)/angiotensin-II and angiotensin-(1-9)/angiotensin-I ratios in both experimental groups. Plasma angiotensin-(1-7) levels were increased by candesartan, and bradykinin-(1-9) levels were increased by enalapril both in infarcted rats and sham rats (Tables 3 and 4).

[3] = Circulating bradykinin levels post coronary artery ligation (HPLC and radioimmunoassay); details: for Bk-(1-7) / Bk-(1-7)/Bk-(1-9) / Bk-(1-9): plasma, 10 mg/kg daily, 8 weeks, ± SEM
Protocol: as §1, §2, §3

[4] = both experimental groups (sham and infarcted rats)

Compound: CCOc1nc2cccc(C(=O)O)c2n1Cc1ccc(-c2ccccc2-c2nnn[nH]2)cc1 [candesartan]
- Infarct size LV ([1]; infarcted rats (MI)): 30 ± 1%
- LVAWT ([1]; infarcted rats (MI)): 0.9 ± 0.4 mm
- LVEDD ([1]; infarcted rats (MI)): 8.0 ± 0.3 mm
- LVESD ([1]; infarcted rats (MI)): 5.9 ± 0.4 mm
- LVFS ([1]; infarcted rats (MI)): 22 ± 2 %
- SBP ([1]; infarcted rats (MI)): 88 ± 4*^#¶ mm Hg
- LLVWT ([1]; sham rats): 1.1 ± 0.0 mm
- LVAWT ([1]; sham rats): 1.1 ± 0.4 mm
- LVEDD ([1]; sham rats): 7.7 ± 0.2 mm
- LVESD ([1]; sham rats): 5.1 ± 0.1 mm
- LVFS ([1]; sham rats): 30 ± 2%
- LVP content ([1]; sham rats): 11.6 ± 1.1 mg
- LVW/BW ([1]; sham rats): 2.7 ± 0.1 mg/g
- SBP ([1]; sham rats): 84 ± 4*^#¶ mm Hg
- mRNA ANF ([1]; sham rats): 0.7 ± 0.2 times
- β-MHC ([1]; sham rats): 1.1 ± 0.2 times
- Ang I ([2]; infarcted rats (MI)): 30.7 ± 1.9 fmol/g
- Ang II ([2]; infarcted rats (MI)): 34.6 ± 4.2*^¶ fmol/g
- Ang II/Ang I ([2]; infarcted rats (MI)): 4.5 ± 0.6*^#¶
- Ang-(1 -7) ([2]; infarcted rats (MI)): 14.4 ± 2.7*^#¶ fmol/g
- Ang-(1-7)/Ang II ([2]; infarcted rats (MI)): 1.02 ± 0.06*^#¶
- Ang-(1 -9) ([2]; infarcted rats (MI)): 43.8 ± 2.9 *^#¶ fmol/g
- Ang-(1-9)/Ang I ([2]; infarcted rats (MI)): 2.8 ± 1.1*^#¶
- Ang I ([2]; sham rats): 22.6 ± 5.3 fmol/g
- Ang II ([2]; sham rats): 38.6 ± 7.2 fmol/g
- Ang II/Ang I ([2]; sham rats): 3.3 ± 0.9
- Ang-(1 -7) ([2]; sham rats): 10.9 ± 1.6*^#¶ fmol/g
- Ang-(1-7)/Ang II ([2]; sham rats): 0.49 ± 0.15
- Ang-(1 -9) ([2]; sham rats): 36.2 ± 4.1 fmol/g
- Ang-(1-9)/Ang I ([2]; sham rats): 2.6 ± 0.7
- Bk-(1-7) ([3]; infarcted rats (MI)): 5.44 ± 1.60 fmol/g
- Bk-(1-7)/Bk-(1-9) ([3]; infarcted rats (MI)): 1.18 ± 0.21^¶
- Bk-(1-9) ([3]; infarcted rats (MI)): 4.08 ± 1.43^¶ fmol/g
- Bk-(1-7) ([3]; sham rats): 4.41 ± 1.5 fmol/g
- Bk-(1-7)/Bk-(1-9) ([3]; sham rats): 1.69 ± 0.51
- Bk-(1-9) ([3]; sham rats): 4.30 ± 1.36 fmol/g

Compound: CCOC(=O)[C@H](CCc1ccccc1)N[C@@H](C)C(=O)N1CCC[C@H]1C(=O)O [enalapril]
- Infarct size LV ([1]; infarcted rats (MI)): 31 ± 2%
- LLVWT ([1]; infarcted rats (MI)): 1.5 ± 0.1 mm
- LVAWT ([1]; infarcted rats (MI)): 0.9 ± 0.1 mm
- LVEDD ([1]; infarcted rats (MI)): 7.1 ± 0.2 mm
- LVESD ([1]; infarcted rats (MI)): 5.4 ± 0.3 mm
- LVFS ([1]; infarcted rats (MI)): 21 ± 1 %
- SBP ([1]; infarcted rats (MI)): 110 ± 3 mm Hg
- left ventricle dilatation ([1]; infarcted rats, week 8): significantly prevented
- LLVWT ([1]; sham rats): 1.4 ± 0.0 mm
- LVAWT ([1]; sham rats): 1.3 ± 0.2 mm
- LVEDD ([1]; sham rats): 7.5 ± 0.3 mm
- LVESD ([1]; sham rats): 5.2 ± 0.1 mm
- LVFS ([1]; sham rats): 30 ± 1%
- LVP content ([1]; sham rats): 12.4 ± 0.8 mg
- LVW/BW ([1]; sham rats): 2.7 ± 0.2 mg/g
- SBP ([1]; sham rats): 113 ± 2 mm Hg
- mRNA ANF ([1]; sham rats): 0.9 ± 0.1 times
- β-MHC ([1]; sham rats): 1.3 ± 0.2 times
- -(1-7)/angiotensin-II ratio [2, 4]: increase
- angiotensin-(1-9) circulating levels [2, 4]: increase
- angiotensin-(1-9)/angiotensin-I ratio [2, 4]: increase
- Ang I ([2]; infarcted rats (MI)): 32.4 ± 0.8 fmol/g
- Ang II ([2]; infarcted rats (MI)): 23.3 ± 5.4 fmol/g
- Ang II/Ang I ([2]; infarcted rats (MI)): 0.72 ± 0.1
- Ang-(1 -7) ([2]; infarcted rats (MI)): 3.8 ± 0.6 fmol/g
- Ang-(1-7)/Ang II ([2]; infarcted rats (MI)): 0.26 ± 0.02
- Ang-(1 -9) ([2]; infarcted rats (MI)): 29 ± 3 fmol/g
- Ang-(1-9)/Ang I ([2]; infarcted rats (MI)): 0.89 ± 0.02
- Ang I ([2]; sham rats): 30.7 ± 1.0 fmol/g
- Ang II ([2]; sham rats): 15.4 ± 3.8 fmol/g
- Ang II/Ang I ([2]; sham rats): 0.45 ± 0.05
- Ang-(1 -7) ([2]; sham rats): 4.1 ± 0.5 fmol/g
- Ang-(1-7)/Ang II ([2]; sham rats): 0.25 ± 0.07
- Ang-(1 -9) ([2]; sham rats): 25 ± 5 fmol/g
- Ang-(1-9)/Ang I ([2]; sham rats): 0.75 ± 0.03
- bradykinin-(1-9) levels ([3]; both in infarcted rats and sham rats): increased
- Bk-(1-7) ([3]; infarcted rats (MI)): 1.40 ± 0.17 fmol/g
- Bk-(1-7)/Bk-(1-9) ([3]; infarcted rats (MI)): 0.17 ± 0.06
- Bk-(1-9) ([3]; infarcted rats (MI)): 7.89 ± 1.22 fmol/g
- Bk-(1-7) ([3]; sham rats): 1.48 ± 0.46 fmol/g
- Bk-(1-7)/Bk-(1-9) ([3]; sham rats): 0.19 ± 0.04
- Bk-(1-9) ([3]; sham rats): 9.53 ± 2.99 fmol/g
